Measured values reported in patent US11299496B2, “Ligands for alpha-7 nicotinic acetylcholine receptors and methods of treating neurological and inflammatory conditions” (Northeastern University, priority 2014, dated 2022).

Columns and labels:
human alpha-7 nAChR [1] = biological target: T1, human alpha-7 nAChR (Homo sapiens, UniProt P36544); experiment: Two-electrode voltage clamp of alpha-7 nAChR expressed in Xenopus oocytes (net charge); format: cell-based; conditions: for Charge Alone: compound alone acting as an allosteric agonist; for Charge Alone / Charge +C: area under the curve of current vs. time; for Charge +C: compound together with choline or ACh, includes PAM and ago-PAM activity
T1 construct: expressed in transfected cells; host or cells: Xenopus laevis oocytes (cRNA injection)
In short: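 Human α7 nAChR co-expressed with RIC-3 in Xenopus oocytes; two-electrode clamp at −60 mV, 12 s applications in Ringer's pH 7.3. Net charge integrated over 120 s from application, normalized to prior ACh controls; measured for compound alone and with choline or ACh; n≥4 oocytes.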

human alpha-7 nAChR [2] = biological target: T1, human alpha-7 nAChR; experiment: Electrophysiological evaluation of PAMs and ago-PAMs in Xenopus oocytes (direct activation, direct and primed potentiation); format: cell-based; conditions: for direct activation when applied alone / primed potentiation of subsequent responses to ACh applied alone: FIGS. 2A-2F; for peak efficacy in the presence of ACh: GAT154 vs GAT155
Description: Electrophysiological evaluation in Xenopus oocytes was used to determine the potency and efficacy with which PAMs and ago-PAMs of the invention produce self-induced agonism and positive allosteric modulation of the orthosteric, agonist-induced activation of the alpha-7 nAChR. The ability of these compounds to increase the maximal channel influx and to enhance the activity of the receptor on its own as well as in presence of choline is denoted by Imax and EC50 respectively. The details of cDNA clones and RNA for injection was as published. Thakur et. al. 2013, J. Med. Chem. 2013 Nov. 14; 56(21):8943-7. doi: 10.1021/jm401267t). For experiments involving PAM and ago-PAM analogs, where standard levels of expression result in ion currents too large to be recorded in voltage clamp, experiments were typically conducted 1-3 days after RNA injection.
Two-electrode voltage clamp was conducted using OpusXpress 6000A (Molecular Devices, Union City, Calif.). Both the voltage and current electrodes were filled with 3 M KCl. Oocytes were voltage-clamped at −60 mV except when determining the effect of voltage on channel activation. The oocytes were bath-perfused with Ringer's solution (115 mM NaCl, 2.5 mM KCl, 1.8 mM CaCl2, 10 mM HEPES, and 1 μM atropine, pH 7.2) with a flow rate of 2 mL/min. To evaluate the effects of experimental compounds on ACh-evoked responses of alpha-7 nAChRs expressed in oocytes, the initial control responses were measured with two applications of ACh alone, before applications of experimental drugs alone or co-applications with ACh. The agonist solutions were applied from a 96-well plate via disposable tips, and the drugs were either co-applied with ACh by the OpusXpress pipette delivery system or bath-applied using the OpusXpress system to switch the running buffer. Drug applications were for 12 s followed by a 181 s washout period and usually alternated between controls and test solutions. After experimental drug applications, follow-up control applications of ACh were made to determine primed potentiation, desensitization or rundown of the receptors. Data were collected at 50 Hz, filtered at 20 Hz, analyzed by Clampfit 9.2 (Molecular Devices) and Excel (Microsoft, Redmond Wash.), and normalized to the averaged current of the two initial control responses. Data were expressed as mean±SEM from at least four oocytes for each experiment. For the concentration-response relationships, responses were normalized to the net charge of the most adjacent prior control.
A detailed comparative activity profile of select ago-PAMs/PAMs based on the structure of 4BP-TQS was obtained. […] They also functioned as direct PAMs, producing responses when co-applied with ACh. However, the primed potentiation of response to ACh alone was less after direct potentiation than after direct activation, due to residual induction of PAM-insensitive desensitization.

CCI mice = experiment: Chronic constriction injury (CCI) model, mechanical allodynia (von Frey); format: in vivo, mouse; conditions: for threshold for pain in the CCI model: dose of 1 mg/kg, FIG. 5B
Protocol: Mice were anesthetized with pentobarbital (45 mg/kg, i.p.). An incision was made just below the hipbone, parallel to the sciatic nerve. The right common sciatic nerve was exposed at the level proximal to the sciatic trifurcation, and a nerve segment 3-5 mm long was separated from surrounding connective tissue. Two loose ligatures with 6-0 silk suture were made around the nerve with a 1.0-1.5 mm interval between them. Muscles were closed with suture thread and the wound with wound clips. […] Any suture that remained after two weeks was removed from the healed surgical wound. Mechanical allodynia (von Frey test) was measured before and after drug injections.
The antiallodynic effects of test compounds were assessed in three experiments consisting of CCI mice and sham control mice. […] The anti-allodynic effects of alpha-7 nAChRs PAMs and ago-PAMs were tested (four doses and vehicle control, N=10 mice/group, administered i.p.) in the CCI model. Mice were assessed for mechanical allodynia 2 weeks after the CCI surgery. All these studies will be conducted in blinded manner. CCI and sham control mice received two conditioning sessions per day (vehicle in the morning and drug in the afternoon) over the course of 3 days, and were tested for a place preference on day 7 without any injections.
Pain behavioral data are presented as mean±S.E.M. (see FIGS. 5A and 5B). Statistical analysis was performed using the t-test or two-way analysis of variance test, followed by the post-hoc Bonferroni's test. All differences were considered significant at p<0.05, and significant differences are shown with asterisks in FIGS. 5A and 5B. ED50 values with 95% confidence limits (CL) were calculated by unweighted least-squares linear regression.

Solubility comparison = format: physicochemical
alpha-7 nAChRs = alpha-7 nAChRs (Homo sapiens, UniProt P36544); conditions: cited from earlier work
Chain of alpha-7 nAChRs (P36544 23-502): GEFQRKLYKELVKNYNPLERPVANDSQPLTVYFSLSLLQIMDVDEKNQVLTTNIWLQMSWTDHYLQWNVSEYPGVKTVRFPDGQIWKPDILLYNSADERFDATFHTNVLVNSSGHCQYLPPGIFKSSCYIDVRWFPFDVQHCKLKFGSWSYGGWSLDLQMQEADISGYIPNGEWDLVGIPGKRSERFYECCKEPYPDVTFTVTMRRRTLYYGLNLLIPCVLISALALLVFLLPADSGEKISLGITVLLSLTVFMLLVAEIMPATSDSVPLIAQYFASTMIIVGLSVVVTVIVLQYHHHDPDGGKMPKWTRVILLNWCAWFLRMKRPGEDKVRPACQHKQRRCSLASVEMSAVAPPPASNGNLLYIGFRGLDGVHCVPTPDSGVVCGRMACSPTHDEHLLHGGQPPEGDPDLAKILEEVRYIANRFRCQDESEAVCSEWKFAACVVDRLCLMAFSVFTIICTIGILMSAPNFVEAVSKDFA

T1 sequence (P36544 23-502): as above

## NS(=O)(=O)c1ccc2c(c1)[C@H]1C=CC[C@H]1[C@@H](c1cc(Br)cs1)N2 (stereo in doubt) [Compound 37, 4-(4-bromothiophen-2-yl)-3a,4,5,9b-tetrahydro-3H-cyclopenta[c]quinoline-8-sulfonamide]
Human alpha-7 nAChR [1]
  Charge Alone: 0
  Charge +C: 163
Human alpha-7 nAChR [2]
  direct activation when applied alone: negligible direct activation
  primed potentiation of subsequent responses to ACh applied alone: large primed potentiation
  peak efficacy in the presence of ACh: almost equal peak efficacy
CCI mice
  threshold for pain in the CCI model: effective in increasing the threshold for pain
Solubility comparison
  solubility compared to GAT107: significantly better solubility compared to GAT107

## NS(=O)(=O)c1ccc2c(c1)C1C=CCC1C(c1ccc(Br)cc1)N2 (racemic) [Compound 4BP-TQS, 4-(4-bromophenyl)-3a,4,5,9b-tetrahydro-3H-cyclopenta[c]quinoline-8-sulfonamide]
alpha-7 nAChRs; agonist efficacy relative to ACh
  maximal response larger than ACh: 45 fold
alpha-7 nAChRs; agonist potency relative to ACh
  EC50 lower than ACh: 8 fold

## CC(C)(C)OC(=O)Nc1ccc([C@H]2Nc3ccc(S(N)(=O)=O)cc3[C@H]3C=CC[C@H]32)cc1 [Compound 24]
Human alpha-7 nAChR [1]
  Charge Alone: 212
  Charge +C: 580
Human alpha-7 nAChR [1]; in words
  'ago' component / ago-PAM activity: increased ‘ago’ component
Human alpha-7 nAChR [2]
  types of activity (direct activation, direct potentiation, primed potentiation): exhibited all three types of activities

## NS(=O)(=O)c1ccc2c(c1)[C@H]1C=CC[C@H]1[C@@H](c1ccc(Br)s1)N2 (stereo in doubt) [Compound 36, 4-(5-bromothiophen-2-yl)-3a,4,5,9b-tetrahydro-3H-cyclopenta[c]quinoline-8-sulfonamide]
Human alpha-7 nAChR [1]
  Charge Alone: 48
  Charge +C: 1145
Human alpha-7 nAChR [2]
  direct activation when applied alone: directly activated human alpha-7 nAChR
  primed potentiation of subsequent responses to ACh applied alone: large primed potentiation
  peak efficacy in the presence of ACh: almost equal peak efficacy
CCI mice; 1 mg/kg
  reversal of CCI effect: completely reversed the effect
CCI mice
  threshold for pain in the CCI model: effective in increasing the threshold for pain
CCI mice; same dose of 1 mg/kg
  effectiveness relative to GAT155 in the CCI model: twice as effective at every time point
CCI mice; sham control mice
  effect on sham mice: without showing any significant effect on the sham mice
Solubility comparison
  solubility compared to GAT107: significantly better solubility compared to GAT107

## CC(C)(C)NC(=O)Oc1ccc([C@H]2Nc3ccc(S(N)(=O)=O)cc3[C@H]3C=CC[C@H]32)cc1 (stereo in doubt) [Compound 65, 4-(8-sulfamoyl-3a,4,5,9b-tetrahydro-3H-cyclopenta[c]quinolin-4-yl)phenyl tert-butylcarbamate]
Human alpha-7 nAChR [1]
  Charge Alone: 332
  Charge +C: 740
Human alpha-7 nAChR [2]
  effectiveness as ago-PAM compared to GAT154: almost equally effective as ago-PAMs
  effectiveness as allosteric agonist compared to GAT154: more effective as allosteric agonists

## CC(C)(C)CC(=O)Nc1ccc([C@H]2Nc3ccc(S(N)(=O)=O)cc3[C@H]3C=CC[C@H]32)cc1 (stereo in doubt) [Compound 64, 3,3-dimethyl-N-(4-(8-sulfamoyl-3a,4,5,9b-tetrahydro-3H-cyclopenta[c]quinolin-4-yl)phenyl)butanamide]
Human alpha-7 nAChR [1]
  Charge Alone: 597
  Charge +C: 652
Human alpha-7 nAChR [2]
  effectiveness as ago-PAM compared to GAT154: almost equally effective as ago-PAMs
  effectiveness as allosteric agonist compared to GAT154: more effective as allosteric agonists
